Source: paper PMC12095047, “Transport of phenoxyacetic acid herbicides by PIN-FORMED auxin transporters” (Nature Plants, 2025)
Where “and” joins values, the source holds several entries; their conditions need not be identical. Identical values can stand only once. Like-named read-outs stand apart in the source and are kept apart here.

How the values were obtained:
[1] = molecular target: T1, PIN8 S266A (Arabidopsis thaliana, UniProt Q9LFP6, S266A); type: biochemical; details: for Peak current: S266A, individual sensors
T1 construct: made in house
Description: (§1) SSM, using a SURFE2R N1 from Nanion Technologies, was conducted as described. In brief, soy polar lipid mix (38% phosphatidyl choline, 30% phosphatidyl ethanolamine, 18% phosphatidyl inositol, 7% phosphatidic acid and 7% other soy lipids) and 1-palmitoyl-2-oleoyl-sn-glycero-3-phosphocholin were purchased from Avanti. Liposomes were prepared in Ringer solution without Ca^2+ (115 mM NaCl, 2.5 mM KCl, 1 mM NaHCO3, 10 mM HEPES pH7.4, 1 mM MgCl2) and homogenized using a Lipsofast (Avestin) with a […]. Triton X-100 was added to the liposomes to a final concentration of 1% (v/v). Protein was added to liposomes to a calculated lipid-to-protein ratio (LPR) of 10 unless stated otherwise. The detergent was removed using 400 mg ml^−1 Bio Beads (BioRad) overnight at 4 °C in a rotary shaker. Proteoliposomes were frozen in liquid nitrogen and kept at −80 °C until use. Proteoliposomes were diluted 1:5 in Ringer solution without Ca^2+, sonicated five times and then applied to the sensors by centrifugation (30 min, 3,000 g, 4 °C). Non-activating buffer was Ringer solution without Ca^2+ as described unless specified otherwise, and activating buffer contained the substrate of interest. In most instances we used a single-solution exchange experiment. In this case proteoliposomes, immobilized on the supported membrane, are kept in non-activating buffer as specified. At the beginning of the experiment the non-activating buffer is replaced with fresh identical non-activating buffer, and after 1 s, activating buffer (same buffer containing substrate) is added. After another second, the buffer is replaced with non-activating buffer again. Current response is recorded throughout the entire 3 s. For competition or inhibition, the respective compound was present in non-activating and activating solutions. Each experiment was performed on at least two individual sensors. On each sensor each measurement consists of three technical replicates where the mean is calculated. KD values were determined as described previously. Briefly, the binding current induced by 100 µM NPA was recorded in the presence of different concentrations of the substrate under investigation ranging between 0 µM and 1,000 µM present in the activating solution and the non-activating solution (Extended Data Fig. 5b). […] The maximum peak current was then plotted as a function of the concentration of the substrate under investigation and plotted against the degree of inhibition and fitted with a one-site binding model using GraphPad Prism V10.4.1 The half maximal concentration corresponds to the KD of the substrate under investigation.
(§2) The protocol for expression and purification of AtPIN8 protein (Uniprot: Q9LFP6) in lauryl maltose neopentyl glycol was described previously. All point mutants were generated using Q5 Site-Directed mutagenesis kit (New England Biolabs). The C-flat Holey Carbon grids (CF-1.2/1.3, Cu-300 mesh) were glow-discharged for 45 s at 15 mA in a GloQube Plus (Quorum). […] After 1 h of incubation on ice, the sample was centrifuged at 16,000 g for 15 min before blotting to remove precipitation. A drop of 4 µl of each sample was applied to the glow-discharged grids, blotted with a Vitrobot Mark IV (ThermoFisher Scientific) using the following settings (temperature 4 °C, 100% humidity, blot time of 4 s, blot force −1) and vitrified in liquid ethane.

[2] = molecular target: T2, PIN8 I51Y (Arabidopsis thaliana, UniProt Q9LFP6, I51Y); type: biochemical; details: Michaelis–Menten fit
T2 construct: made in house
Description: as §1, §2

[3] = molecular target: T3, PIN8 N223A (Arabidopsis thaliana, UniProt Q9LFP6, N223A); type: biochemical; details: PIN8 N223A, Michaelis–Menten fit
T3 construct: made in house
Description: as §1, §2

[4] = molecular target: T4, PIN8 Y150F (Arabidopsis thaliana, UniProt Q9LFP6, Y150F); type: biochemical
T4 construct: made in house
Description: as §1, §2

[5] = molecular target: T5, PIN8 S55A (Arabidopsis thaliana, UniProt Q9LFP6, S55A); type: biochemical; details: for Peak current: S55A, individual sensors
T5 construct: made in house
Description: as §1, §2

[6] = molecular target: T6, PIN8 S55A/S146A (Arabidopsis thaliana, UniProt Q9LFP6, S146A/S55A); type: biochemical; details: Michaelis–Menten fit
T6 construct: made in house
Description: as §1, §2

[7] = molecular target: T7, PIN8 (Arabidopsis thaliana, UniProt Q9LFP6); experiment: SSM electrophysiology, KD by inhibition of the NPA binding current; details: individual sensors
T7 construct: made in house
T7 sequence (Q9LFP6 1-367): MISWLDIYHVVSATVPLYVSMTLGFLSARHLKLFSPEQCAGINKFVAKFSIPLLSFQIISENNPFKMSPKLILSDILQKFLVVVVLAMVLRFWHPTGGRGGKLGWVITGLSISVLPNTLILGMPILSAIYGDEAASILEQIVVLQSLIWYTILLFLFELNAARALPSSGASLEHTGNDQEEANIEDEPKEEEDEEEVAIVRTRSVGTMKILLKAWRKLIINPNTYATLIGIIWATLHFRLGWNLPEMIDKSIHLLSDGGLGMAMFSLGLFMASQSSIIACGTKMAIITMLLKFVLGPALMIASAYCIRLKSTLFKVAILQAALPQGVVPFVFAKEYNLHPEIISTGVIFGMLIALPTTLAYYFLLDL
Description: as §1

[8] = molecular target: T8, wild-type PIN8 proteoliposomes (Arabidopsis thaliana, UniProt Q9LFP6); experiment: SSM electrophysiology, peak width (FWHM) of current response at LPR10 and LPR50; type: biochemical; details: for Rel. FWHM (% of LPR10): replicates
T8 construct: made in house
T8 sequence (Q9LFP6 1-367): T7 sequence (Q9LFP6 1-367)
Description: as §1

[9] = molecular target: T9, A. thaliana PIN8 (Arabidopsis thaliana, UniProt Q9LFP6); experiment: SSM electrophysiology, peak current response on PIN8 proteoliposomes; type: biochemical; details: for Peak current: WT, individual sensors; for Peak current (nA): Sensor 1-3
T9 construct: made in house
T9 sequence (Q9LFP6 1-367): T7 sequence (Q9LFP6 1-367)
Description: as §1

[10] = read-out: EC50 of peak current response
[11] = WT PIN8 proteoliposomes, Michaelis–Menten fit

T4 sequence (Q9LFP6 whole entry Y150F): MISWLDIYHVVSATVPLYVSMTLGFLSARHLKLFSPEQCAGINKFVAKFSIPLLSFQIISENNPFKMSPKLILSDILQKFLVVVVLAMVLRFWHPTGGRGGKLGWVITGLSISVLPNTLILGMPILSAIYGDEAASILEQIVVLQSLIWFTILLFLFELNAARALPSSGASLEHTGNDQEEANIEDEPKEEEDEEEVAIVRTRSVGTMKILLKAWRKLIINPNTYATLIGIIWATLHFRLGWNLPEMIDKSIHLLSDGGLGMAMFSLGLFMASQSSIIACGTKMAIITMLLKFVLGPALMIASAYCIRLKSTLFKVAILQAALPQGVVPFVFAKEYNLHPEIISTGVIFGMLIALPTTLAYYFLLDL
T5 sequence (Q9LFP6 whole entry S55A): as the sequence (Q9LFP6 whole entry Y150F) above, with S55A, F150Y counted along it
T1 sequence (Q9LFP6 whole entry S266A): as the sequence (Q9LFP6 whole entry Y150F) above, with F150Y, S266A counted along it
T3 sequence (Q9LFP6 whole entry N223A): as the sequence (Q9LFP6 whole entry Y150F) above, with F150Y, N223A counted along it
T2 sequence (Q9LFP6 whole entry I51Y): as the sequence (Q9LFP6 whole entry Y150F) above, with I51Y, F150Y counted along it
T6 sequence (Q9LFP6 whole entry S55A/S146A): as the sequence (Q9LFP6 whole entry Y150F) above, with S55A, S146A, F150Y counted along it

Compound: O=C(O)Cc1c[nH]c2ccccc12 [IAA, indole-3-acetic acid]
- Imax ([1]; PIN8 S266A, Michaelis–Menten fit): 4 ± 0.6 nA
- EC50 ([1]; PIN8 S266A, Michaelis–Menten fit, read-out: EC50 of peak current response): 578 ± 183 µM
- Peak current ([1]; 5 µM substrate): 0.2201 nA and 0.07526 nA and 0.1062 nA
- Peak current ([1]; 20 µM substrate): 0.3015 nA and 0.4448 nA and 0.2134 nA
- Peak current ([1]; 50 µM substrate): 0.4871 nA and 0.8571 nA and 0.3384 nA
- Imax [2]: 2 ± 0.2 nA
- EC50 [2, 10]: 547 ± 171 µM
- Imax [3]: 2 ± 0.8 nA
- EC50 ([3]; No transport = model could not be fit, read-out: EC50 of peak current response): 444 ± 205 µM
- Imax ([4]; PIN8 Y150F, Michaelis–Menten fit): 6 ± 2 nA
- EC50 ([4]; PIN8 Y150F, Michaelis–Menten fit, read-out: EC50 of peak current response): 452 ± 32 µM
- fold-change difference to the respective EC50 of wildtype PIN8 ([4]; Y150F, direction shown by colour only): ~ 2 fold
- Imax ([5]; PIN8 S55A, Michaelis–Menten fit): 6 ± 1 nA
- EC50 ([5]; PIN8 S55A, Michaelis–Menten fit, read-out: EC50 of peak current response): 213 ± 58 µM
- Peak current ([5]; 5 µM substrate): 0.3417 nA and 0.3232 nA and 0.2318 nA and 0.3509 nA
- Peak current ([5]; 20 µM substrate): 1.04 nA and 0.8246 nA and 0.4664 nA and 0.4596 nA
- Peak current ([5]; 50 µM substrate): 1.937 nA and 1.54 nA and 0.9207 nA and 0.8323 nA
- Peak current ([5]; 100 µM substrate): 2.888 nA and 2.325 nA and 1.514 nA and 1.385 nA
- Peak current ([5]; 500 µM substrate): 5.317 nA and 4.4508 nA and 3.048 nA and 3.044 nA
- Peak current ([5]; 1000 µM substrate): 6.258 nA and 5.302 nA and 3.739 nA and 3.804 nA
- Peak current ([5]; 2000 µM substrate): 7.104 nA and 6.138 nA and 4.476 nA and 4.5392 nA
- Imax [6]: 7 ± 2 nA
- EC50 [6, 10]: 341 ± 128 µM
- inhibition at 5 µM ([7]; read-out: Rel. Inhibition of NPA peak currents, 5 µM substrate, 100 µM NPA): 14.1%
- inhibition at 50 µM ([7]; read-out: Rel. Inhibition of NPA peak currents, 50 µM substrate, 100 µM NPA): 57%
- inhibition at 100 µM ([7]; read-out: Rel. Inhibition of NPA peak currents, 100 µM substrate, 100 µM NPA): 77.9%
- inhibition at 250 µM ([7]; read-out: Rel. Inhibition of NPA peak currents, 250 µM substrate, 100 µM NPA): 84.7%
- inhibition at 500 µM ([7]; read-out: Rel. Inhibition of NPA peak currents, 500 µM substrate, 100 µM NPA): 94.3%
- inhibition at 1000 µM ([7]; read-out: Rel. Inhibition of NPA peak currents, 1000 µM substrate, 100 µM NPA): 84.7%
- Kd ([7]; sheet F2A (Fig. 2a, KD of substrate binding), read-out: Peak current): 38.8 µM and 54 µM and 24.3 µM
- Rel. FWHM (% of LPR10) ([8]; LPR10): 1.043 % of LPR10 and 0.9783 % of LPR10 (2×)
- peak width of SSM-based current response as a function of lipid-to-protein ratio (LPR) ([8]; LPR10 versus LPR50): vary with lipid-to-protein ratio (LPR)
- Rel. FWHM (% of LPR10) ([8]; LPR50): 2.022 % of LPR10 (2×) and 1.957 % of LPR10
- EC50 [9, 11]: 250 µM and 254 µM
- maximal current Imax [9, 11]: 18 ± 3 nA
- Peak current ([9]; 5 µM substrate): 0.8096 nA and 0.6401 nA and 0.949 nA
- Peak current ([9]; 20 µM substrate): 1.842 nA and 1.724 nA and 2.164 nA
- Peak current ([9]; 50 µM substrate): 3.368 nA and 3.292 nA and 4.115 nA
- Peak current ([9]; 100 µM substrate): 4.516 nA and 4.8122 nA and 5.921 nA
- Peak current ([9]; 500 µM substrate): 9.827 nA and 10.2734 nA and 12.6135 nA
- Peak current ([9]; 1000 µM substrate): 13.1379 nA and 13.1579 nA and 16.4113 nA
- Peak current ([9]; 2000 µM substrate): 14.7357 nA and 15.0585 nA and 18.9117 nA
- Peak current (nA) ([9]; [IAA] 5 µM): 0.04999 nA and 0.08856 nA and 0.0843 nA
- Peak current (nA) ([9]; [IAA] 50 µM): 0.4222 nA and 0.6123 nA and 0.4745 nA
- Peak current (nA) ([9]; [IAA] 100 µM): 0.6662 nA and 0.8986 nA and 0.7119 nA
- Peak current (nA) ([9]; [IAA] 500 µM): 1.469 nA and 1.771 nA and 1.558 nA
- Peak current (nA) ([9]; [IAA] 1000 µM): 1.848 nA and 2.271 nA and 1.967 nA
- Peak current (nA) ([9]; [IAA] 2000 µM): 2.237 nA and 2.442 nA and 2.41 nA
